PubChem BioAssay AID248 (DTP/NCI, 2004)
Toxic doses and inconclusive results are not listed. Cut-off read from the data, not from the text of the source: active = T/C of 150% or more; inactive = T/C below 125%. Peptide text beside a SMILES is read from it. * marks the point of attachment. Cbz = O=C(OCc1ccccc1)*; Bn = c1ccc(C*)cc1

System: L1210 leukemia ip in BDF1 mice, survival T/C
Experiment: NCI In Vivo Anticancer Drug Screen. Data for tumor model L1210 Leukemia (intraperitoneal) in B6D2F1 (BDF1) mice
Settings: endpoint: mean survival time, higher = longer survival
How it was run: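 In this screen, tumor-bearing mice given compound are compared to those given vehicle, and their survival values are reported as a treated-to-control quotient.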

[1] = dose: 100.0 mg/kg/injection, schedule: Q04DX002 (ip), vehicle: saline with Tween-80
[2] = dose: 200.0 mg/kg/injection, schedule: Q04DX002 (ip), vehicle: saline with Tween-80
[3] = dose: 12.5 mg/kg/injection, schedule: Q01DX009 (ip), vehicle: Klucel (hydroxypropylcellulose) (HPC)
[4] = dose: 12.5 mg/kg/injection, schedule: Q04DX003 (ip), vehicle: Klucel (hydroxypropylcellulose) (HPC)
[5] = dose: 25.0 mg/kg/injection, schedule: Q01DX009 (ip), vehicle: Klucel (hydroxypropylcellulose) (HPC)
[6] = dose: 25.0 mg/kg/injection, schedule: Q04DX003 (ip), vehicle: Klucel (hydroxypropylcellulose) (HPC)
[7] = dose: 50.0 mg/kg/injection, schedule: Q01DX009 (ip), vehicle: Klucel (hydroxypropylcellulose) (HPC)
[8] = dose: 50.0 mg/kg/injection, schedule: Q04DX003 (ip), vehicle: Klucel (hydroxypropylcellulose) (HPC)
[9] = dose: 100.0 mg/kg/injection, schedule: Q01DX009 (ip), vehicle: Klucel (hydroxypropylcellulose) (HPC)
[10] = dose: 100.0 mg/kg/injection, schedule: Q04DX003 (ip), vehicle: Klucel (hydroxypropylcellulose) (HPC)
[11] = dose: 200.0 mg/kg/injection, schedule: Q01DX009 (ip), vehicle: Klucel (hydroxypropylcellulose) (HPC)
[12] = dose: 200.0 mg/kg/injection, schedule: Q04DX003 (ip), vehicle: Klucel (hydroxypropylcellulose) (HPC)
[13] = dose: 50.0 mg/kg/injection, schedule: Q01DX001 (ip), vehicle: saline
[14] = dose: 100.0 mg/kg/injection, schedule: Q01DX001 (ip), vehicle: saline
[15] = dose: 200.0 mg/kg/injection, schedule: Q01DX001 (ip), vehicle: saline
[16] = dose: 100.0 mg/kg/injection, schedule: Q04DX003 (ip), vehicle: saline
[17] = dose: 200.0 mg/kg/injection, schedule: Q04DX003 (ip), vehicle: saline
[18] = dose: 100.0 mg/kg/injection, schedule: Q01DX009 (ip), vehicle: saline
[19] = dose: 200.0 mg/kg/injection, schedule: Q01DX009 (ip), vehicle: saline
[20] = dose: 400.0 mg/kg/injection, schedule: Q01DX009 (ip), vehicle: saline
[21] = dose: 100.0 mg/kg/injection, schedule: Q04DX003 (ip), vehicle: saline with Tween-80
[22] = dose: 200.0 mg/kg/injection, schedule: Q04DX003 (ip), vehicle: saline with Tween-80
[23] = dose: 400.0 mg/kg/injection, schedule: Q04DX003 (ip), vehicle: saline with Tween-80
[24] = dose: 400.0 mg/kg/injection, schedule: Q01DX001 (ip), vehicle: saline
[25] = dose: 100.0 mg/kg/injection, schedule: Q01DX009 (ip), vehicle: saline with Tween-80
[26] = dose: 400.0 mg/kg/injection, schedule: Q04DX003 (ip), vehicle: Klucel (hydroxypropylcellulose) (HPC)
[27] = dose: 50.0 mg/kg/injection, schedule: Q01DX009 (ip), vehicle: saline with Tween-80

Measured: T/C

CCOc1ccc(OC/C=C(\C)CC/C=C(/C)CC)cc1
inactive: [1] 96 % of control | [2] 99 % of control | dose: 400.0 mg/kg/injection, schedule: Q04DX002 (ip), vehicle: saline with Tween-80 108 % of control

O=C(O)C(=O)NCc1cnccn1
inactive: dose: 25.0 mg/kg/injection, schedule: Q01DX009 (ip), vehicle: water 96 % of control | dose: 50.0 mg/kg/injection, schedule: Q01DX009 (ip), vehicle: water 97 % of control | dose: 100.0 mg/kg/injection, schedule: Q04DX003 (ip), vehicle: water 96 % of control

CCN(CC)S(=O)(=O)c1ccc(Nc2nc(Cl)nc(Cl)n2)cc1
inactive: [3] 113 % of control | [4] 102 % of control | [5] 97 % of control | [6] 100 % of control | [7] 113 % of control | [8] 95 % of control

COc1cccc(OC)c1C#N
inactive: [7] 95 % of control | [9] 96 % of control | [10] 98 % of control | [11] 95 % of control | [12] 98 % of control

COC(=O)C1(C(=O)OC)NNC(=O)c2cc(Br)ccc2N1
inactive: [13] 101 % of control | [14] 89 % of control | [15] 95 % of control

CN(C)Cc1ccc(NC(=O)c2ccc(C(=O)Nc3ccc(CN(C)C)cc3)cc2)cc1
inactive: dose: 15.0 mg/kg/injection, schedule: Q01DX Z (ip), vehicle: carboxymethylcellulose (CMC) 103 % of control | dose: 30.0 mg/kg/injection, schedule: Q01DX Z (ip), vehicle: carboxymethylcellulose (CMC) 106 % of control | dose: 60.0 mg/kg/injection, schedule: Q01DX Z (ip), vehicle: carboxymethylcellulose (CMC) 106 % of control | dose: 120.0 mg/kg/injection, schedule: Q01DX Z (ip), vehicle: carboxymethylcellulose (CMC) 117 % of control

COc1ccc(CCN=C(C)C2C3CC4CC(C3)CC2C4)cc1OC (stereo unspecified)
inactive: [16] 90 % of control | [17] 97 % of control | dose: 400.0 mg/kg/injection, schedule: Q04DX003 (ip), vehicle: saline 90 % of control

CC(=O)/C=C/c1ccc2c(c1)OCO2
inactive: dose: 25.0 mg/kg/injection, schedule: Q01DX009 (ip), vehicle: saline 105 % of control | dose: 50.0 mg/kg/injection, schedule: Q01DX009 (ip), vehicle: saline 96 % of control | [18] 110 % of control | [19] 94 % of control | [20] 102 % of control

CC(C)C(NC(=O)C(CSCc1ccccc1)NC(=O)OCc1ccccc1)C(N)=O (stereo unspecified) (Cbz-Cys(Bn)-Val-NH2; configuration not given here)
inactive: [9] 87 % of control | [11] 89 % of control

O=c1cc(-c2ccc(S(=O)(=O)F)cc2)[nH]c2ccc([N+](=O)[O-])cc12
inactive: [18] 101 % of control | [19] 101 % of control | [20] 100 % of control

CCOC(=O)c1ccc(NC(=O)CC(C)=O)cc1
inactive: [21] 103 % of control | [22] 101 % of control | [23] 97 % of control

O=S(Cc1ccccc1)c1ccccc1 (stereo unspecified)
inactive: dose: 75.0 mg/kg/injection, schedule: Q04DX002 (ip), vehicle: Klucel (hydroxypropylcellulose) (HPC) 115 % of control | dose: 150.0 mg/kg/injection, schedule: Q04DX002 (ip), vehicle: Klucel (hydroxypropylcellulose) (HPC) 100 % of control | dose: 300.0 mg/kg/injection, schedule: Q04DX002 (ip), vehicle: Klucel (hydroxypropylcellulose) (HPC) 93 % of control

COc1ccc(/C=[N+](\[O-])c2ccccc2)cc1
inactive: [13] 110 % of control | [14] 112 % of control | [15] 112 % of control | [24] 118 % of control

Cc1nc(SCc2ccc(Cl)cc2)[nH]c(=O)c1CCO
inactive: [25] 92 % of control | dose: 200.0 mg/kg/injection, schedule: Q01DX009 (ip), vehicle: saline with Tween-80 92 % of control | dose: 400.0 mg/kg/injection, schedule: Q01DX009 (ip), vehicle: saline with Tween-80 92 % of control

COC(=O)CCC(=O)NCCc1cccc(OC)c1
inactive: [10] 97 % of control | [12] 98 % of control | [26] 92 % of control

C/C=C/CC1(Cc2ccccc2)C(=O)NC(=S)NC1=O
inactive: dose: 10.0 mg/kg/injection, schedule: Q01DX001 (ip), vehicle: saline 102 % of control | dose: 20.0 mg/kg/injection, schedule: Q01DX001 (ip), vehicle: saline 111 % of control

c1cnc2sccc2c1
inactive: [27] 113 % of control | [25] 95 % of control | [21] 102 % of control | [22] 103 % of control

O=[N+]([O-])c1cc(Cl)cc2c1-c1c(Cl)cc(Cl)cc1C2O (stereo unspecified)
inactive: [9] 91 % of control | [10] 104 % of control | [11] 104 % of control | [12] 103 % of control | [26] 97 % of control

C1CN(SSN2CCOCC2)CCO1
inactive: [4] 89 % of control | [6] 110 % of control | [8] 89 % of control | [12] 102 % of control

COC(=O)c1cc(C)c(N)cc1C
inactive: [14] 96 % of control | [15] 104 % of control | [24] 102 % of control

CC(C)N(C(=O)Nc1cc([N+](=O)[O-])ccc1Cl)c1ccccc1
inactive: [3] 89 % of control | [5] 96 % of control | [7] 98 % of control

c1ccc2c[n+](C[n+]3ccc4ccccc4c3)ccc2c1
inactive: [16] 103 % of control | [17] 105 % of control

O=C(O)CNS(=O)(=O)c1ccccc1
inactive: dose: 100.0 mg/kg/injection, schedule: Q01DX009 (ip), vehicle: carboxymethylcellulose (CMC) 97 % of control | dose: 200.0 mg/kg/injection, schedule: Q01DX009 (ip), vehicle: carboxymethylcellulose (CMC) 101 % of control | dose: 400.0 mg/kg/injection, schedule: Q01DX009 (ip), vehicle: carboxymethylcellulose (CMC) 89 % of control

COC(=O)C(N)=O
inactive: dose: 100.0 mg/kg/injection, schedule: Q01DX001 (ip), vehicle: steriod suspending solution 115 % of control | dose: 100.0 mg/kg/injection, schedule: Q04DX002 (ip), vehicle: Klucel (hydroxypropylcellulose) (HPC) 100 % of control | dose: 200.0 mg/kg/injection, schedule: Q01DX001 (ip), vehicle: steriod suspending solution 121 % of control | dose: 200.0 mg/kg/injection, schedule: Q04DX002 (ip), vehicle: Klucel (hydroxypropylcellulose) (HPC) 106 % of control | dose: 400.0 mg/kg/injection, schedule: Q01DX001 (ip), vehicle: steriod suspending solution 106 % of control | dose: 400.0 mg/kg/injection, schedule: Q04DX002 (ip), vehicle: Klucel (hydroxypropylcellulose) (HPC) 106 % of control

COC(=O)C1C2C=CC(CC2)C1(C)C(=O)OC (stereo unspecified)
inactive: [21] 95 % of control | [22] 101 % of control | [23] 90 % of control

CCCCCCCCCCCCCCCCn1cnc2c(=S)nc[nH]c21
inactive: dose: 12.5 mg/kg/injection, schedule: Q01DX005 (ip), vehicle: other 102 % of control | dose: 25.0 mg/kg/injection, schedule: Q01DX005 (ip), vehicle: other 96 % of control | dose: 50.0 mg/kg/injection, schedule: Q01DX005 (ip), vehicle: other 104 % of control | dose: 100.0 mg/kg/injection, schedule: Q01DX005 (ip), vehicle: other 104 % of control | dose: 200.0 mg/kg/injection, schedule: Q01DX005 (ip), vehicle: other 96 % of control

FC(F)(F)c1cccc(NC2=NCCS2)c1
inactive: [27] 91 % of control | [25] 98 % of control | [1] 97 % of control | [2] 115 % of control

CN(C)CCCNC(=O)Nc1ccccc1
inactive: [9] 100 % of control | [10] 120 % of control | [11] 98 % of control | [12] 93 % of control
